Laboratory results: US11319299B2, “Substituted carboxamides as inhibitors of WDR5 protein-protein binding” (PROPELLON THERAPEUTICS INC., priority 2016, dated 2022)

The compounds below were run on MV4-11 cells (assay: Cell proliferation assay (ATPlite)). Details: Homo sapiens, MV4-11, 120 h; MV-411 cells, five days; read-out: In vitro whole cell potency in MV-411 cells, (IC50).
Assay type: cell-based
Method: (iv) Cell Proliferation Assay
MV4-11 cells were seeded into a 96-well plate at 1,000 cells/well in 150 μl medium (Alpha-MEM containing 10% FBS, 100 μg/ml Normocin, and 50 μg/ml Gentamycin, Invitrogen). A HP D300 digital dispenser was used to dose cells with DMSO or test compounds across a 10-point range of concentrations (high dose of 10 μM), and cultures were grown in a humidified 5% CO2 incubator at 37° C. After five days, plates were removed from the incubator and equilibrated to room temperature. An equal volume of ATPlite assay reagent was added to each well, and samples were processed according to manufacturer's instructions (Perkin Elmer). Luminescent signal was measured using an Envision plate reader equipped with a US-Luminescence detector.

Structure (SMILES)	IC50
Cc1cc(C(=O)Nc2cc(-c3cnc(N4CCOCC4)nc3)c(F)cc2N2C[C@@H](C)N(C)[C@@H](C)C2)cc(C)c1F [Example 28, 4-fluoro-N-[4-fluoro-5-(2-morpholin-4-ylpyrimidin-5-yl)-2-[(3R,5S)-3,4,5-trimethylpiperazin-1-yl]phenyl]-3,5-dimethylbenzamide]	2760 nM
C[C@@H]1CN(c2cc(F)c(-c3ccc(N4CCOCC4)cc3)cc2NC(=O)c2c[nH]c(=O)cc2C(F)(F)F)C[C@H](C)N1C [Example 29, N-[4-fluoro-5-(4-morpholin-4-ylphenyl)-2-[(3R,5S)-3,4,5-trimethylpiperazin-1-yl]phenyl]-6-oxo-4-(trifluoromethyl)-1H-pyridine-3-carboxamide]	45 nM
CN1CCN(c2cc(F)c(-c3ccc(OC4CCOCC4)nc3)cc2NC(=O)c2c[nH]c(=O)cc2C(F)(F)F)CC1 [Example 30, N-[4-fluoro-2-(4-methylpiperazin-1-yl)-5-[6-(oxan-4-yloxy)pyridin-3-yl]phenyl]-6-oxo-4-(trifluoromethyl)-1H-pyridine-3-carboxamide]	210 nM
C[C@@H]1CN(c2cc(F)c(-c3cnc(C#N)nc3)cc2NC(=O)c2c[nH]c(=O)cc2C(F)(F)F)C[C@H](C)N1C [Example 31, N-[5-(2-cyanopyrimidin-5-yl)-4-fluoro-2-[(3S,5R)-3,4,5-trimethylpiperazin-1-yl]phenyl]-6-oxo-4-(trifluoromethyl)-1H-pyridine-3-carboxamide]	571 nM
C[C@@H]1CN(c2cc(F)c(-c3ccc(N4CCOCC4)nc3)cc2NC(=O)c2c[nH]c(=O)cc2C(F)(F)F)C[C@H](C)N1C [Example 32, N-[4-fluoro-5-(6-morpholin-4-ylpyridin-3-yl)-2-[(3S,5R)-3,4,5-trimethylpiperazin-1-yl]phenyl]-6-oxo-4-(trifluoromethyl)-1H-pyridine-3-carboxamide]	67 nM
Cc1ncc(-c2cc(NC(=O)c3c[nH]c(=O)cc3C(F)(F)F)c(N3C[C@@H](C)N(C)[C@@H](C)C3)cc2F)cn1 [Example 33, N-[4-fluoro-5-(2-methylpyrimidin-5-yl)-2-[(3S,5R)-3,4,5-trimethylpiperazin-1-yl]phenyl]-6-oxo-4-(trifluoromethyl)-1H-pyridine-3-carboxamide]	72 nM
C[C@@H]1CN(c2cc(F)c(-c3cnc(N4CCOCC4)nc3)cc2NC(=O)c2c[nH]c(=O)cc2C(F)F)C[C@H](C)N1C [Example 34, 4-(difluoromethyl)-N-[4-fluoro-5-(2-morpholin-4-ylpyrimidin-5-yl)-2-[(3S,5R)-3,4,5-trimethylpiperazin-1-yl]phenyl]-6-oxo-1H-pyridine-3-carboxamide]	38 nM
C[C@@H]1CN(c2cc(F)c(-c3cccnc3)cc2NC(=O)c2c[nH]c(=O)cc2C(F)(F)F)C[C@H](C)N1C [Example 35, N-[4-fluoro-5-pyridin-3-yl-2-[(3R,5S)-3,4,5-trimethylpiperazin-1-yl]phenyl]-6-oxo-4-(trifluoromethyl)-1H-pyridine-3-carboxamide]	669 nM
C[C@@H]1CN(c2cc(F)c(-c3ccncc3)cc2NC(=O)c2c[nH]c(=O)cc2C(F)(F)F)C[C@H](C)N1C [Example 36, N-[4-fluoro-5-pyridin-4-yl-2-[(3R,5S)-3,4,5-trimethylpiperazin-1-yl]phenyl]-6-oxo-4-(trifluoromethyl)-1H-pyridine-3-carboxamide]	850 nM
CN(C)[C@@H]1CCN(c2cc(F)c(-c3cnc(N4CCOCC4)nc3)cc2NC(=O)c2c[nH]c(=O)cc2C(F)(F)F)C1 [Example 37, N-[2-[(3R)-3-(dimethylamino)pyrrolidin-1-yl]-4-fluoro-5-(2-morpholin-4-ylpyrimidin-5-yl)phenyl]-6-oxo-4-(trifluoromethyl)-1H-pyridine-3-carboxamide]	54 nM
CN(C)[C@H]1CCN(c2cc(F)c(-c3cnc(N4CCOCC4)nc3)cc2NC(=O)c2c[nH]c(=O)cc2C(F)(F)F)C1 [Example 38, N-[2-[(3S)-3-(dimethylamino)pyrrolidin-1-yl]-4-fluoro-5-(2-morpholin-4-ylpyrimidin-5-yl)phenyl]-6-oxo-4-(trifluoromethyl)-1H-pyridine-3-carboxamide]	4070 nM
CN1CCN(c2cc(F)c(-c3cnc(N(C)C)nc3)cc2NC(=O)c2c[nH]c(=O)cc2C(F)(F)F)CC1 [Example 40, N-[5-[2-(dimethylamino)pyrimidin-5-yl]-4-fluoro-2-(4-methylpiperazin-1-yl)phenyl]-6-oxo-4-(trifluoromethyl)-1H-pyridine-3-carboxamide]	> 10000 nM
CN1CCN(c2cc(F)c(-c3ccc(CN4CCOCC4)nc3)cc2NC(=O)c2c[nH]c(=O)cc2C(F)(F)F)CC1 [Example 41, N-[4-fluoro-2-(4-methylpiperazin-1-yl)-5-[6-(morpholin-4-ylmethyl)pyridin-3-yl]phenyl]-6-oxo-4-(trifluoromethyl)-1H-pyridine-3-carboxamide]	213 nM
CC1CN(c2cc(F)c(-c3cccc(CN4CCOCC4)c3)cc2NC(=O)c2c[nH]c(=O)cc2C(F)(F)F)CCN1C (stereo not shown) [Example 45, N-(4-(3,4-dimethylpiperazin-1-yl)-6-fluoro-3′-(morpholinomethyl)-[1,1′-biphenyl]-3-yl)-6-oxo-4-(trifluoromethyl)-1,6-dihydropyridine-3-carboxamide]	491 nM
CN1CCN(c2cc(F)c(-c3ccnc(N4CCOCC4)c3)cc2NC(=O)c2c[nH]c(=O)cc2C(F)(F)F)CC1 [Example 46, N-(4-fluoro-2-(4-methylpiperazin-1-yl)-5-(2-morpholinopyridin-4-yl)phenyl)-6-oxo-4-(trifluoromethyl)-1,6-dihydropyridine-3-carboxamide]	2900 nM
CN1CCN(c2cc(F)c(-c3cncc(CNC4CCOCC4)c3)cc2NC(=O)c2c[nH]c(=O)cc2C(F)(F)F)CC1 [Example 48, N-(4-fluoro-2-(4-methylpiperazin-1-yl)-5-(5-(((tetrahydro-2H-pyran-4-yl)amino)methyl)pyridin-3-yl)phenyl)-6-oxo-4-(trifluoromethyl)-1,6-dihydropyridine-3-carboxmaide]	> 10000 nM
CN1CCN(c2cc(F)c(-c3cncc(CN[C@@H]4CCOC4)c3)cc2NC(=O)c2c[nH]c(=O)cc2C(F)(F)F)CC1 [Example 49, (R)—N-(4-fluoro-2-(4-methylpiperazin-1-yl)-5-(5-(((tetrahydrofuran-3-yl)amino)methyl)pyridin-3-yl)phenyl)-6-oxo-4-(trifluoromethyl)-1,6-dihydropyridine-3-carboxamide]	> 10000 nM
C[C@@H]1CN(c2cc(F)c(-c3cccc(CN4CCOCC4)c3)cc2NC(=O)c2c[nH]c(=O)cc2C(F)(F)F)CCN1C [Example 50, (R)—N-(4-(3,4-dimethylpiperazin-1-yl)-6-fluoro-3′-(morpholinomethyl)-[1,1′-biphenyl]-3-yl)-6-oxo-4-(trifluoromethyl)-1,6-dihydropyridine-3-carboxamide]	2900 nM
C[C@H]1CN(c2cc(F)c(-c3cccc(CN4CCOCC4)c3)cc2NC(=O)c2c[nH]c(=O)cc2C(F)(F)F)CCN1C [Example 51, (S)—N-(4-(3,4-dimethylpiperazin-1-yl)-6-fluoro-3′-(morpholinomethyl)-[1,1′-biphenyl]-3-yl)-6-oxo-4-(trifluoromethyl)-1,6-dihydropyridine-3-carboxamide]	389 nM
